Experimental data as given in patent publication US12662513B2, “Peptidic modulators of quorum sensing in Staphylococcus epidermidis” (priority 2016, dated 2026).
pIC50: −log10 of the molar value. “Also recorded” adds a separate entry of the source. Like-named read-outs stand apart in the source and are kept apart here. Bridge positions count the residues as written; N and C are the ends. Square brackets hold non-standard residues; d marks the D form. Ends that are not written are not given here. Peptide text beside a SMILES is read from it.

Legend:
[1] = molecular target: T1, AgrC-I receptor (Staphylococcus epidermidis, UniProt Q5HMY3); experiment: cell-based; assay type: cell-based, S. epidermidis; settings: for Mode/strength of activity toward AgrC-I (Group I), in words: dose response; for EC50 in AgrC-I: activation dose response in the presence of 50 nM S. epidermidis AIP-II; for IC50 in AgrC-I: antagonism dose response, peptide alone, Group-I GFP reporter strain, 24 h
Description: The initial set of 14 analogs (listed in Table 1) was synthesized using solid-phase peptide chemistry and purified to homogeneity using previously established HPLC methods (59). Each analog was tested for its ability to modulate the activity of the AgrC-I receptor using a wild-type S. epidermidis Group-I fluorescence reporter strain. This strain contained a reporter plasmid encoding a gfp gene fused to the P3 promoter found upstream of RNAIII (36).
(§1) Biological reagents, strains, and general methods. All standard reagents were purchased from commercial sources and used according to enclosed instructions. The S. epidermidis fluorescence reporter strains AH3408 (Group-I), AH3567 (Group-II), and AH3409 (Group-III) were cultured in Tryptic Soy Broth (TSB, from Sigma) augmented with 10 μg/mL of erythromycin (36). The S. epidermidis wild-type strain RP62A (Group-I) was cultured in TSB (from Sigma or EMD Millipore). The S. aureus fluorescence reporter strains AH1677 (Group-I), AH430 (Group-II), AH1747 (Group-III), and AH1872 (Group-IV) were cultured in Brain Heart Infusion (BHI, from Teknova) augmented with 10 μg/mL of chloramphenicol (65). All cultures were grown at 37° C. with shaking (200 rpm) unless noted otherwise. Absorbance and fluorescence measurements were obtained using a Biotek Synergy 2 microplate reader operating Gen5 data analysis software. IC50 values and EC50 values were determined from sigmoidal curve fits using GraphPad Prism software (v. 6.0).
(§2) Fluorescence reporter assay protocol. […] Each peptide solution was tested in triplicate. […] Plates were then incubated at 37° C. for 24 h. Fluorescence (EX 500 nm/EM 540 nm) and OD600 of each well was measured using a plate reader, and the fluorescence values were normalized to the DMSO control.
(§3) The remaining steps of the fluorescence assay were the same as above.

[2] = test system: S. epidermidis Group-I RP62A biofilm; settings: read-out: IC50 of biofilm growth inhibition, 24 h static, CV staining
Description: as §1
Crystal violet biofilm assay protocol. […] Each solution was tested in triplicate.

[3] = test system: AgrC-II; settings: for potency estimated from few doses: single replicate dose response, Table 3; for Activity toward Group-II at lower concentration, in words: single concentration 100 nM (or 1 μM); for Mode/strength of activity toward AgrC-II (Group II), in words: dose response
Description: (§4) However, the biological significance of this agr interference remains unclear, although it has been hypothesized to potentially play a role in competition between different groups in a mixed bacteria milieu (18). […] To this end, the AIP analogs discussed above were screened in GFP reporter strains of Groups-II and -III S. epidermidis to complement the Group-I S. epidermidis data in Tables 1 and 2 (see Methods; FIGS. 7A and 7B).
as §1, §2, §3

[4] = molecular target: T1, AgrC-I receptor; assay type: cell-based, S. epidermidis; settings: single replicate dose response, Table 3
[5] = test system: AgrC-III; settings: for Activity toward Group-III at lower concentration, in words: single concentration 100 nM (or 1 μM)
Description: as §4, §1, §2, §3

[6] = read-out: AgrC-II: IC50 (estimated)
[7] = read-out: AgrC-I: EC50 (estimated)
[8] = dose response antagonism assay, FIGS. 3A/3B
[9] = read-out: AgrC-I: IC50 (estimated)
[10] = read-out: AgrC-II: EC50 (estimated)

T1 sequence (Q5HMY3 entry or part of it): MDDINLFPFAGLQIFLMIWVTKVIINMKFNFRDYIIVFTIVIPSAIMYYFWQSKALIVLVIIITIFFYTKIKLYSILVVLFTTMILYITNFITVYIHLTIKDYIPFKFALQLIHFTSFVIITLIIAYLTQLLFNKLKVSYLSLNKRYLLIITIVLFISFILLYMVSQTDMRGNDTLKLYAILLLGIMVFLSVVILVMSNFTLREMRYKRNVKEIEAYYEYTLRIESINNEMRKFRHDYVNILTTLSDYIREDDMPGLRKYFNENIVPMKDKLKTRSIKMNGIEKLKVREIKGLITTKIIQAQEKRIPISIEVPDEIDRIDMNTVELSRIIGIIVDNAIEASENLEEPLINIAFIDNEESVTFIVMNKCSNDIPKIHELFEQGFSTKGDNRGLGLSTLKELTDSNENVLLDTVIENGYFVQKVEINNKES

CC(=O)N[C@H]1CSC(=O)[C@H](Cc2ccccc2)NC(=O)[C@H](Cc2ccc(O)cc2)NC(=O)[C@H](CO)NC(=O)[C@H](C)NC1=O [tAIP-I, Ac-(C-A-S-Y-F)] (Ac-CASYF; thioester 1-C)
Mode/strength of activity toward AgrC-I (Group I), in words [1]: weak inhibitory activity

D-S-V-(C-A-S-A-F) (DSVCASAF; bridge 4-C; also: thiolactone between Cys4 side chain and C-terminus) [AIP-I Y7A]
EC50 in AgrC-I [1]: Inactive^c
IC50 in AgrC-I [1]: Inactive^c
Activity against Group-I, in words ([1]; single concentration 10 μM): inactive

CC(C)[C@H](NC(=O)[C@H](CO)NC(=O)[C@@H](N)CC(=O)O)C(=O)N[C@H]1CSC(=O)[C@H](Cc2ccccc2)NC(=O)[C@H](Cc2ccc(O)cc2)NC(=O)[C@H](CO)NC(=O)[C@H](C)NC1=O [AIP-I, D-S-V-(C-A-S-Y-F), reference compound] (H-DSVCASYF; thioester 4-C)
pIC50 [2]: 7.00

D-S-V-(C-DA-S-Y-F) (DSVC[dA]SYF; bridge 4-C; also: thiolactone between Cys4 side chain and C-terminus) [AIP-I D-A5]
EC50 in AgrC-I [1]: Inactive^c
IC50 in AgrC-I [1]: Inactive^c

CC(C)[C@H](NC(=O)[C@H](CO)NC(=O)[C@H](C)N)C(=O)N[C@H]1CSC(=O)[C@H](Cc2ccccc2)NC(=O)[C@H](Cc2ccc(O)cc2)NC(=O)[C@H](C)NC(=O)[C@H](C)NC1=O [AIP-I D1AS6A, A-S-V-(C-A-A-Y-F)] (H-ASVCAAYF; thioester 4-C)
pIC50 [2]: 7.74

D-S-V-(C-A-S-Y-A) (DSVCASYA; bridge 4-C; also: thiolactone between Cys4 side chain and C-terminus) [AIP-I F8A]
EC50 in AgrC-I [1]: Inactive^c
IC50 in AgrC-I [1]: Inactive^c

Y-S-T-(C-D-F-I-M) (YSTCDFIM; bridge 4-C) [S. aureus AIP-I, reference compound]
EC50 in AgrC-I [1]: Inactive^c
IC50 in AgrC-I [1]: Inactive^c

KYNVCSSYL [AIP-II 9aa P4V N7S, K-Y-N-V-C-S-S-Y-L]
Mode/strength of activity toward AgrC-I (Group I), in words [1]: switched; also recorded: antagonist
potency estimated from few doses [3, 6]: 6.5 nM
potency estimated from few doses [4, 7]: > 1800 nM

CC(C)C[C@@H]1NC(=O)[C@H](CO)NC(=O)[C@H](CO)NC(=O)[C@@H](NC(=O)[C@H](C)NC(=O)[C@H](CC(N)=O)NC(=O)[C@@H](NC(=O)CN)C(C)C)CSC(=O)[C@H](Cc2ccccc2)NC1=O [S. aureus AIP-II, G-V-N-A-(C-S-S-L-F), reference compound] (H-GVNACSSLF; thioester 5-C)
Mode/strength of activity toward AgrC-I (Group I), in words [1]: relatively strong AgrC-I antagonist

C[C@H](N)C(=O)N[C@@H](CO)C(=O)N[C@@H](C)C(=O)N[C@H]1CSC(=O)[C@H](Cc2ccccc2)NC(=O)[C@H](Cc2ccc(O)cc2)NC(=O)[C@H](C)NC(=O)[C@H](C)NC1=O [AIP-I D1AS6AV3A, A-S-A-(C-A-A-Y-F)] (H-ASACAAYF; thioester 4-C)
IC50 against AgrC-III, in words [5, 8]: subnanomolar to low nanomolar range
Activity toward Group-III at lower concentration, in words [5]: strongly inhibited
IC50 against AgrC-II, in words [3, 8]: subnanomolar to low nanomolar range
Activity toward Group-II at lower concentration, in words [3]: strongly inhibited

KYLPCSNYL [AIP-II 9aa N3L, K-Y-L-P-C-S-N-Y-L]
Mode/strength of activity toward AgrC-I (Group I), in words [1]: antagonist
Mode/strength of activity toward AgrC-II (Group II), in words [3]: antagonist
potency estimated from few doses [3, 6]: 70.7 nM
potency estimated from few doses [4, 9]: 9.4 nM

I-N-(C-D-F-L-L) [S. aureus AIP-III, reference compound]
EC50 in AgrC-I [1]: Inactive^c
IC50 in AgrC-I [1]: Inactive^c

CC(C)C[C@@H]1NC(=O)[C@H](Cc2ccc(O)cc2)NC(=O)[C@H](CO)NC(=O)[C@H](C)NC(=O)[C@@H](NC(=O)[C@@H]2CCCN2C(=O)[C@H](CC(N)=O)NC(=O)[C@H](Cc2ccc(O)cc2)NC(=O)[C@H](CCCCN)NC(=O)[C@H](C)NC(=O)[C@H](C)NC(=O)[C@@H](N)CC(N)=O)CSC1=O [AIP-III, N-A-A-K-Y-N-P-(C-A-S-Y-L), reference compound] (H-NAAKYNPCASYL; thioester 8-C)
Mode/strength of activity toward AgrC-I (Group I), in words [1]: inhibit

CC(C)C[C@@H]1NC(=O)[C@H](Cc2ccc(O)cc2)NC(=O)[C@H](CC(N)=O)NC(=O)[C@H](CO)NC(=O)[C@@H](NC(=O)[C@@H]2CCCN2C(=O)[C@@H](N)CC(N)=O)CSC1=O [AIP-II 7aa, N-P-(C-S-N-Y-L)] (H-NPCSNYL; thioester 3-C)
Mode/strength of activity toward AgrC-I (Group I), in words [1]: dramatic reduction in inhibitory activity

D-S-V-(DC-A-S-Y-F) (DSV[dC]ASYF; bridge 4-C; also: thiolactone between Cys4 side chain and C-terminus) [AIP-I D-C4]
EC50 in AgrC-I [1]: Inactive^c
IC50 in AgrC-I [1]: Inactive^c

KYNVCSNYL [AIP-II 9aa P4V, K-Y-N-V-C-S-N-Y-L]
Mode/strength of activity toward AgrC-I (Group I), in words [1]: antagonist
potency estimated from few doses [3, 10]: 114 nM
potency estimated from few doses [4, 9]: 45 nM

KYNVCANYL [AIP-II 9aa P4V S6A, K-Y-N-V-C-A-N-Y-L]
Mode/strength of activity toward AgrC-I (Group I), in words [1]: inactive
potency estimated from few doses [3, 10]: > 7000 nM

KYVPCSNYL [AIP-II 9aa N3V, K-Y-V-P-C-S-N-Y-L]
Mode/strength of activity toward AgrC-I (Group I), in words [1]: antagonist
Mode/strength of activity toward AgrC-II (Group II), in words [3]: antagonist
potency estimated from few doses [3, 6]: 108 nM
potency estimated from few doses [4, 9]: 4.1 nM

CC(C)[C@H](NC(=O)[C@H](CO)NC(=O)[C@@H](N)CC(=O)O)C(=O)N[C@H]1CSC(=O)[C@@H](Cc2ccccc2)NC(=O)[C@H](Cc2ccc(O)cc2)NC(=O)[C@H](CO)NC(=O)[C@H](C)NC1=O [AIP-I D-F8, D-S-V-(C-A-S-Y-DF)] (H-DSVCASY[dF]; thioester 4-C)
Mode/strength of activity toward AgrC-I (Group I), in words [1]: maintained agonistic activity

CC(=O)N[C@H]1CSC(=O)[C@H](CC(C)C)NC(=O)[C@H](Cc2ccc(O)cc2)NC(=O)[C@H](CC(N)=O)NC(=O)[C@H](CO)NC1=O [tAIP-II, Ac-(C-S-N-Y-L)] (Ac-CSNYL; thioester 1-C)
Mode/strength of activity toward AgrC-I (Group I), in words [1]: dramatic reduction in inhibitory activity
Activity against Group-III, in words ([5]; single concentration 10 μM): inactive

CC(C)[C@@H](NC(=O)[C@H](CO)NC(=O)[C@@H](N)CC(=O)O)C(=O)N[C@H]1CSC(=O)[C@H](Cc2ccccc2)NC(=O)[C@H](Cc2ccc(O)cc2)NC(=O)[C@H](CO)NC(=O)[C@H](C)NC1=O [AIP-I D-V3, D-S-DV-(C-A-S-Y-F)] (H-DS[dV]CASYF; thioester 4-C)
Activity toward Group-I at lower concentration, in words ([1]; single concentration 100 nM (or 1 μM)): lost its inhibitory activity
Activity toward Group-III at lower concentration, in words [5]: remained an antagonist
Activity toward Group-II at lower concentration, in words [3]: remained an antagonist

KYNVCSAYL [AIP-II 9aa P4V N7A, K-Y-N-V-C-S-A-Y-L]
Mode/strength of activity toward AgrC-I (Group I), in words [1]: activating; also recorded: agonist
potency estimated from few doses [3, 10]: > 600 nM
potency estimated from few doses [4, 7]: > 1200 nM

D-S-V-(C-A-S-DY-F) (DSVCAS[dY]F; bridge 4-C; also: thiolactone between Cys4 side chain and C-terminus) [AIP-I D-Y7]
EC50 in AgrC-I [1]: Inactive^c
IC50 in AgrC-I [1]: Inactive^c
Mode/strength of activity toward AgrC-I (Group I), in words [1]: complete loss of activity

CC(C)C[C@@H]1NC(=O)[C@H](Cc2ccc(O)cc2)NC(=O)[C@H](CC(N)=O)NC(=O)[C@H](CO)NC(=O)[C@@H](NC(=O)[C@@H]2CCCN2C(=O)[C@H](CC(N)=O)NC(=O)[C@H](Cc2ccc(O)cc2)NC(=O)[C@H](CCCCN)NC(=O)[C@H](CO)NC(=O)[C@H](C)NC(=O)[C@@H](N)CC(N)=O)CSC1=O [AIP-II, N-A-S-K-Y-N-P-(C-S-N-Y-L), reference compound] (H-NASKYNPCSNYL; thioester 8-C)
Mode/strength of activity toward AgrC-I (Group I), in words [1]: inhibit
